Patent US6387886B1, “Method for the treatment of severe chronic bronchitis (bronchietasis) with an aerosolized antibiotic” (Chiron Corporation, priority 1998, dated 2002)
Where two headings read alike, the source gives them in different places.

Key:
P. aeruginosa [1] = assay: Placebo-controlled clinical study in bronchiectasis: sputum P. aeruginosa density and microbiological response; assay type: in vivo, Pseudomonas aeruginosa
Method: A placebo-controlled, double-blind, randomized study was conducted to evaluate the microbiological efficacy and safety of inhaled tobramycin for treatment of patients with bronchiectasis and P. aeruginosa. […] The change in P. aeruginosa density in sputum was measured at Weeks 2, 4, and 6 (2 weeks post-treatment). Clinicians assessed patients' general medical condition at Week 6. Safety parameters included adverse events, serum chemistry, and airway reactivity. […] At Week 6, P. aeruginosa was eradicated in 35% of TSI-treated patients but was detected in all placebo patients. […] Few patients withdrew due to adverse events. TSI holds promise as a therapy for patients with bronchiectasis. The study was conducted as follows: […] Patients were excluded if they had CF, a diagnosis of allergic bronchopulmonary aspergillosis, an acute pulmonary process requiring medical intervention as indicated by a new infiltrate on a chest radiograph, significant recent hemoptysis, or had received antibiotics within two weeks of the screening visit. Eligible patients were randomly assigned in blocks of two to parallel groups at each study center to receive either TSI or placebo. […] At all study visits, vital signs were measured, adverse events were recorded, and a sputum sample was collected for quantitative microbiology and susceptibility testing. […] At Week 4, airway reactivity was again monitored, a medical exam was performed, and laboratory tests that were performed at screening were repeated. […] The primary efficacy endpoint was the change in P. aeruginosa density (expressed as log10 CFU/g sputum) from baseline to Week 4. […] (2) an investigator's assessment of change in the patient's general medical condition (“improved” or “not improved”) throughout the study (recorded at Week 6); (3) the percent change in FEV1% predicted and in forced vital capacity (FVC) % predicted from Week 0 to Week 4. […] P. aeruginosa was considered eradicated if it was not detected at Week 6 or if the patient was unable to produce a sputum sample at Week 6 and P. aeruginosa was not isolated at Week 4. […]

[2] = purulent sputum; cited from earlier work
P. aeruginosa [3] = conditions: CF patients, 300 mg inhaled twice daily, cited from earlier work
Gram-negative bacteria = conditions: cited from earlier work
P. aeruginosa isolates = conditions: initial sputum cultures, CF patients, 1993; cited from earlier work
P. aeruginosa [4] = conditions: cited from earlier work
[5] = 71 CF patients, 600 mg tid aerosolized

For `NC[C@H]1O[C@H](O[C@H]2[C@H](O)[C@@H](O[C@H]3O[C@H](CO)[C@@H](O)[C@H](N)[C@H]3O)[C@H](N)C[C@@H]2N)[C@H](N)C[C@@H]1O` [tobramycin], the “antimicrobial efficacy relative to cystic fibrosis patients” value (P. aeruginosa [1]; bronchiectasis versus cystic fibrosis) was “greater than 10,000 fold”, the “factor by which colony forming units (CFU) of P. aeruginosa are decreased” value (P. aeruginosa [1]; in some patients, endobronchial administration) was ≥ 10^6 and the “bronchiectasis patients with complete eradication” value (P. aeruginosa [1]; summary statement) was 20%. For the same compound, the “higher concentrations required in the sputum to overcome inhibitory effects” value [2] was 5-10 ×, the “average decrease in P. aeruginosa density” value (P. aeruginosa [3]; 28 days on/28 days off, Week 0 to Week 20) was 0.8 log10 and the “average decrease in P. aeruginosa density” value (P. aeruginosa [3]; Week 0 to Week 4) was 1.9 log10. The “concentrations effective in inhibiting the growth of many Gram-negative bacteria” value (Gram-negative bacteria) was < 4 µg/mL, the “isolates with MICs <16 μg/mL” value (P. aeruginosa isolates) was 90% and the “isolates with MICs ≦128 μg/mL” value (P. aeruginosa isolates) was 98%. For the same compound, the spirometry (P. aeruginosa [4]; [5]) was “improved spirometry”, the “sputum density of P. aeruginosa” value (P. aeruginosa [4]; [5]) was “significant reduction” and the “emergence of P. aeruginosa strains highly resistant to tobramycin (MIC >128 μg/mL)” value (P. aeruginosa [4]; versus placebo) was “comparable in the placebo and treatment groups”.
